# Measured values: patent US6258790A, “Antisense modulation of integrin α4 expression” (Isis Pharmaceuticals, Inc., priority 1999, dated 2001)
# What was measured:
# [1] = test system: dextran sulfate-mediated colitis in mice; settings: cited from earlier work
# [2] = test system: leukocyte migration; settings: 3 mg/kg oral; 24 hours after implantation; cited from earlier work
# [3] = test system: Mouse experimental autoimmune encephalomyelitis (EAE); assay: Mouse experimental autoimmune encephalomyelitis (EAE) model for multiple sclerosis; type: in vivo, mouse (CSJLF-1); settings: scrambled control; for Peak Severity: score 0 to 5
# [4] = test system: leukocyte trafficking into the central nervous system of EAE mice; assay: Reduction of leukocyte trafficking into the central nervous system of EAE mice (immunostaining of sections); type: in vivo, mouse (CSJLF1); settings: EAE experiment 4
# Method: The pieces were embedded in O.C.T. tissue freezing medium (Ted Pella Inc., Redding, Calif.) on dry ice and methylbutane. Four-micron frozen sections were cut and air dried overnight. The sections were fixed for three minutes in ice-cold acetone and then placed on a Dako Autostainer (Dako Corporation, Carpinteria, Calif.) and treated in the following steps: 5 minutes in 0.03% H2 O2, 5 minutes in 5% donkey serum diluted in PBS, 45 minutes in appropriately diluted primary antibody, 30 minutes in horseradish peroxidase-labeled donkey anti-rat secondary antibody (Jackson Laboratory, Bar Harbor, Me.). Sections were rinsed between treatments with PBS. All the antibodies used were rat anti-mouse from PharMingen (San Diego, Calif.), except BM-8, which was from Bachem Bioscience Inc. (King of Prussia, Pa.). The immunostaining was developed with DAB (Dako Corporation) and counterstained with hematoxylin.
# [5] = test system: Mouse collagen-induced arthritis (CIA); assay: Mouse collagen-induced arthritis (CIA) model for rheumatoid arthritis; type: in vivo, mouse (DBA/1LacJ); settings: Table 22; positive control, 5 mg/kg daily IP
# Text: A model for human rheumatoid arthritis has been developed wherein mice are immunized with bovine type II collagen. Anderson et al., J. Immunol. 1991 147, 1189-1193, citing Trentham et al., J. Exp. Med 1977, 146, 857. Swelling and inflammation of the joints follows in approximately 3 weeks, with joint distortion and ankylosis typical of rheumatoid arthritis. This model has been used to study the effects of the antisense oligonucleotide 17044, targeted to mouse integrin α4, on arthritis in mice.
# DBA/1LacJ mice were obtained from Jackson Laboratory, Bar Harbor, Me. Female mice aged 6 to 8 weeks were used and assigned to groups, ten mice per group. On day 0 mice were immunized at the base of the tail with 100 ug of bovine type II collagen which was emulsified in Complete Freund's Adjuvant (CFA). On day 7, a second booster dose of collagen was administered by the same route. On day 14 the mice were injected subcutaneously with 100 ug of lipopolysaccharide (LPS). Weights were recorded weekly. Mice were inspected daily for the onset of CIA, which is characterized by erythema and edema. Upon the onset of the disease, paw widths and rear ankle widths of affected and unaffected joints were measured three times a week using a constant tension caliper. In addition, limbs were clinically evaluated and graded 0-4, where 0=normal; 1=one digit swollen; 2=inflammation present in more than one digit; 3=joint distortion with or without inflammation; and 4=ankylosis, detected by joint manipulation. The progression of all measurements was recorded to day 50. At the end of the observation period for each mouse, all paws were removed and examined histologically.
# The oligonucleotide, the positive control drug (cyclophosphamide, 5 mg/kg), and the vehicle were administered daily to each mouse intraperitoneally (IP) starting on day -3 and continuing for the duration of the study. Each animal received 10 mg/kg as a bolus daily dose.
# In a preliminary study, a single 10 mg/kg daily dose of […] was administered from the time of disease induction to the conclusion of the study 50 days later. Arthritis incidence was reduced from 70 to 30% in the ISIS 17044-treated group.
# [6] = test system: C8161 human melanoma cells; assay: Experimental metastasis assay, C8161 cells injected into athymic nude mice; type: in vivo, human melanoma cells in athymic nude mice
# Method: To evaluate the role of integrin α4 in metastasis, experimental metastasis assays are performed by injecting 1×10^5 C8161 cells into the lateral tail vein of athymic nude mice. C8161 is a human melanoma cell line. […] Four-week-old female athymic nude mice (Harlan Sprague Dawley) are used. Animals are maintained under the guidelines of the NIH. Groups of 4-8 mice each are tested in experimental metastasis assays.
# Treatment of C8161 cells with antisense oligonucleotide ISIS 27104, complementary to human integrin α4, is performed in the presence of the cationic lipid, LIPOFECTIN (Gibco/BRL, Gaithersburg, Md.). Cells are seeded in 60 mm tissue culture dishes at 10^6 cells/ml and incubated at 37° C. for 3 days, washed with Opti-MEM (Gibco/BRL) 3 times and 100 μl of Opti-MEM medium is added to each well. 0.5 μM oligonucleotide and 15 μg/ml LIPOFECTIN are mixed at room temperature for 15 minutes. 25 μl of the oligonucleotide-LIPOFECTIN mixture is added to the appropriate dishes and incubated at 37° C. for 4 hours. […] After 4 hours, 500 U/ml TNF-α is added to the appropriate wells and incubated for 18 hours at which time cells are removed from the plates, counted and injected into athymic nude mice. […]
# After 4 weeks, mice are sacrificed, organs are fixed in Bouin's fixative and metastatic lesions on lungs are scored with the aid of a dissecting microscope.
# [7] = test system: human integrin α4; assay: Inhibition of human integrin α4 protein levels by antisense oligonucleotides (LIPOFECTIN, flow cytometry with CD49d-FITC) in A375 melanoma cells; type: cell-based; parameters: % Inhib.: tested at 200 nM
# [8] = test system: human integrin α4; assay: Integrin α4 protein expression in A375 cells after electroporation of oligonucleotide (flow cytometry); type: cell-based
# Method: A375 cells were treated with ISIS 107245, 107248, 107252, 107255 and 107259 by electroporation at 175 volts, r=1, c=1000, 0.2 ml Opti-MEM, 1×10^6 cells /ml, 2 mm gap electrode using a BTX Electro Cell Manipulator 600 (Genetronics, San Diego Calif.). Oligonucleotide concentrations were 1, 3, 10 and 30 μM. Cells were harvested 24 hours after oligonucleotide treatment and strained with 2 ug/ml CD49d-FITC for flow cytometry as in the previous examples.
# ISIS 107248 was compared directly to ISIS 27104 for ability to inhibit integrin α4 expression in A375 melanoma cells. Oligonucleotides were electroporated into cells as in the previous example.
# [9] = Table 24, A375 cells, lipofectin, as Example 8
compound,measurement,setting,value
TGF-β,dextran sulfate-mediated colitis,[1],protect against dextran sulfate-mediated colitis in mice
COc1ccc2c(c1)c(CC(=O)O)c(C)n2C(=O)c1ccc(Cl)cc1 [Indomethacin],reduction in mean leukocyte count compared to vehicle control,[2],75-80%
"17614 (GCCGACACCCGTTCGTTCGG; phosphorothioate, 2'-MOE/deoxy, further chemistry not given here) [compound 17614]",Days to Onset,"[3]; EAE Experiment 3, 1 mg/kg",16.86 days
same,Disease Incidence,"[3]; EAE Experiment 3, 1 mg/kg",7/7
same,Peak Severity,"[3]; EAE Experiment 3, 1 mg/kg",2.14
same,Days to Onset,"[3]; EAE Experiment 4, 2 mg/kg SC",14.14 days
same,Disease Incidence,"[3]; EAE Experiment 4, 2 mg/kg SC",7/7
same,Peak Severity,"[3]; EAE Experiment 4, 2 mg/kg SC",1.86
same,Days to Onset,"[3]; EAE Experiment 5, 2 mg/kg SC",9 days
same,Disease Incidence,"[3]; EAE Experiment 5, 2 mg/kg SC",6/7
same,Peak Severity,"[3]; EAE Experiment 5, 2 mg/kg SC",1.71
same,"reduction of cellular influx, scrambled control",[4],not effective in reducing cellular influx
"O=P1(N(CCCl)CCCl)NCCCO1 (centres unmarked) [Cyclophosphamide, cyclophosphamide, reference compound]",# Paws/Mouse (mean number of affected paws at termination),[5],0 ± 0
same,Severity (total clinical score/total number of mice in group),[5],0 ± 0
"27104 (CCCAAGCCATGCGCTCTCGG; phosphorothioate, 2'-MOE, 5-methyl-C, further chemistry not given here) [compound 27104]",enhanced metastatic ability of C8161 from TNF-α treatment,[6]; TNF-α treated cells,eliminates the enhanced metastatic ability
same,metastatic potential of C8161 cells,[6]; cells treated with oligonucleotide before injection,decreases the metastatic potential
same,inhibition (Example 10),"[7]; Example 10 assay, dose not stated",≥ 40%
same,inhibition (Example 11),"[7]; Example 11 assay, dose not stated",≥ 40%
same,% Control,"[7]; Table 4, 10 nM",69%
same,% Inhib.,"[7]; Table 4, 10 nM",31%
same,% Control,"[7]; Table 4, 30 nM",64%
same,% Inhib.,"[7]; Table 4, 30 nM",36%
same,% Control,"[7]; Table 4, 100 nM",49%
same,% Inhib.,"[7]; Table 4, 100 nM",51%
same,% Control,"[7]; Table 4, 300 nM",39%
same,% Inhib.,"[7]; Table 4, 300 nM (highest dose)",61%
same,% Control,"[7]; Table 6, 10 nM",84%
same,% Inhib.,"[7]; Table 6, 10 nM",16%
same,% Control,"[7]; Table 6, 30 nM",82%
same,% Inhib.,"[7]; Table 6, 30 nM",18%
same,% Control,"[7]; Table 6, 100 nM",59%
same,% Inhib.,"[7]; Table 6, 100 nM",41%
same,% Control,"[7]; Table 6, 300 nM",37%
same,% Inhib.,"[7]; Table 6, 300 nM (highest dose)",63%
same,% Control,[7]; [9],69%
same,% Inhib.,[7]; [9],31%
same,% Control,"[8]; Table 25, 1 nM as printed, 24 hours",86.2%
same,% Control,"[8]; Table 25, 10 nM, 24 hours",63.2%
same,% Control,"[8]; Table 25, 30 nM, 24 hours",35.3%
same,% Control,"[8]; Table 26, 1 μM",86.2%
same,% Inhib.,"[8]; Table 26, 1 μM",13.8%
same,% Control,"[8]; Table 26, 3 μM",63.2%
same,% Inhib.,"[8]; Table 26, 3 μM",36.8%
same,% Control,"[8]; Table 26, 10 μM",35.3%
same,% Inhib.,"[8]; Table 26, 10 μM",64.7%
same,% Control,"[8]; Table 26, 30 μM",27.1%
same,% Inhib.,"[8]; Table 26, 30 μM",72.9%
